This is an account of results in paper PMC12693135, “Ocular Toxicity and Mechanistic Investigation for Berberine and Its Metabolite Berberrubine on Zebrafish” (Molecules, 2025).

The subject of data set [1] is mitochondrial complex I (NADH dehydrogenase). Put plainly: Mitochondrial complex I activity assay in treated zebrafish larvae. The note with it: BBR 25 or 50 μM, M1 100 or 200 μM, 5 dpf. The class given is in vivo, zebrafish (Danio rerio). How it is done:
Wild-type AB strain zebrafish (6 hpf) were treated with BBR (25 or 50 μM), M1 (100 or 200 μM), or 0.05% DMSO (control) until 5 dpf, with 9 larvae per treatment and three biological replicates ([…]). Three zebrafish larvae were harvested per group (3 samples per group) and homogenized on ice following the protocol of the Mitochondrial Respiratory Chain Complex I Activity Assay Kit (Solabor, Beijing, China). Briefly, cell homogenates were centrifuged at 600× g for 5 min at 4 °C, and the supernatants were transferred to new microcentrifuge tubes. The samples were then centrifuged again at 11,000× g for 10 min at 4 °C; the precipitates (containing mitochondria) were used for the complex I activity assay. These precipitates were subjected to ultrasonication in the appropriate reaction buffer, and reactions were set up according to the protocol. After mixing, the OD340 values at time 0 (OD1) and at 2 min (OD2) were recorded using a Synergy H1 multifunctional microplate reader (Biotek, Winooski, VT, USA). The ΔOD value was calculated by subtracting OD2 from OD1. Mitochondrial complex I activity was calculated according to the formula provided in the protocol and expressed as units per mg of sample protein.

Data set [2] can be described thus: MTT cytotoxicity assay on HCE-T cells. To be noted: human, HCE-T human corneal epithelial cells; HCE-T cells, 24 h incubation. Type of data set: cell-based, human. On the procedure:
The human corneal epithelial cell line HCE-T (Cellosaurus accession: CVCL_1272, RRID: CVCL_1272, RCB: RCB2280) was purchased from Procell Life Science and Technology Co., Ltd. (Wuhan, China). […] were cultured in high-glucose Dulbecco’s Modified Eagle Medium (DMEM), which was purchased from Procell Life Science and Technology Co., Ltd. (Wuhan, China). The high-glucose DMEM was DMEM basic medium supplemented with 15% fetal bovine serum (Procell), 1% penicillin/streptomycin (Procell), 5 μg/mL insulin, and 10 ng/mL human epidermal growth factor (Procell).
HCE-T cells were seeded in 96-well plates (8 × 10^3 cells/well, 100 μL medium) and cultured overnight at 37 °C, 5% CO2 for adhesion. BBR or its metabolites at various concentrations (BBR and M3 at the concentrations of 31.25, 62.5, 125, 250 and 500 µM, M1 and M4 at the concentrations of 25, 50, 100, 200 and 400 µM) in 0.5% DMSO were added and incubated for 24 h, with 0.5% DMSO in culture medium as the vehicle control. Subsequently, 20 μL MTT (5 mg/mL) was added to each well and the cells were cultured at 37 °C for 4 h. Then, the culture medium was removed, and 150 μL DMSO was added to dissolve formazan crystals and the absorbance at 570 nm was measured on a Synergy H1 multifunctional microplate reader (Biotek, Winooski, VT, USA). The IC50 values of test compounds were calculated by Graphpad Prism 8.5 (GraphPad Software Co., San Diego, CA, USA).
On the technique in general: Formazan colour is commonly taken as a measure of viable cells.

For data set [3], the system named is wild-type AB strain zebrafish. Nature of the data set: Determination of ATP and ROS levels in zebrafish larvae. Type of data set: in vivo, zebrafish (Danio rerio). To be noted: BBR 25 or 50 μM, M1 100 or 200 μM, 5 dpf; for ROS levels: relative to control. On the procedure:
Wild-type AB strain zebrafish (6 hpf) were treated with BBR (25 or 50 μM), M1 (100 or 200 μM), or 0.05% DMSO (control) until 5 dpf, with 30 larvae per treatment and three biological replicates (total 90 larvae per group). Subsequently, 3 larvae were pooled per sample (10 samples per group) and the entire zebrafish was transferred directly into a 96-well plate for fluorescence detection. Cellular ATP content was determined using the CellTiter-Glo® Luminescent Cell Viability Assay Kit (Promega, Madison, WI, USA), which relies on a bioluminescent principle (luciferase-luciferin reaction). Cellular ROS levels were measured using CM-H2DCFDA kits (Invitrogen, Carlsbad, CA, USA), based on the oxidation of non-fluorescent CM-H2DCFDA to fluorescent DCF by ROS. Reagents were prepared and reactions were performed according to the manufacturers’ instructions, with luminescence detected using a Spark multifunctional microplate reader (Tecan, Grödig, Austria).

Data set [4] concerns human lens epithelial cells (HLE-B3). Also on record: method as in PMID 17645667. To be noted: 25 μM under UVA exposure; cited from earlier work.
Data set [5] has as its system rabbit corneal epithelium. Also on record: method as in PMID 32074824. The note with it: topical application of 1.5 mg/mL; cited from earlier work.

SMILES strings stand for the structures.

On to `COc1ccc2cc3[n+](cc2c1O)CCc1cc2c(cc1-3)OCO2` [M1, berberrubine], for which, in data set [1], the “mitochondrial complex I activity” value is “marked, dose-dependent decrease”. For the same compound, the IC50 at 24 h in data set [2] turned out to be 232 µM. Besides, in data set [3], the “intracellular ATP levels” value is “significantly reduced”; the ROS levels result is “marked and dose-dependent increase”.

With `COc1ccc2cc3[n+](cc2c1OC)CCc1cc2c(cc1-3)OCO2` [BBR, berberine], in data set [4], the “phototoxic damage to cells” value is “severe damage”. In data set [1], the “mitochondrial complex I activity” value was “dose-dependently suppressed”. For the same compound, the corneal epithelial repair result in data set [5] was “delayed corneal epithelial repair”. Besides, the IC50 at 24 h in data set [2] was determined as 301 µM. In data set [3], the “intracellular ATP levels” value was “significantly reduced”; the ROS levels result is “marked and dose-dependent increase”.

As a reminder, the IC50 is the concentration that gives 50% inhibition.
